Laboratory results from patent US20220402980A1, “CHROMOGRANIN A-DERIVED PEPTIDES AND USES THEREOF” (OSPEDALE SAN RAFFAELE S.R.L., priority 2019, published 2022).
Where a SMILES comes first, the peptide text is derived from it.

Tests used:
[1] = Peptide stability in mouse liver microsomal preparations (RP-HPLC); type: in vitro ADME; conditions: C57BL/6, mouse, liver microsomes; 37° C.; read-out: t1/2 in mouse liver microsomes (converted)
Experimental: FIG. 14. Stability of peptides 4 and 5 in murine liver microsomes as determined by RP-HPLC. a) RP-HPLC of 4 and 5 after incubation at 37° C. in murine liver microsomes. Peak 1 corresponds to 4 and 5. The peptides were added to murine liver microsomes (454 - μg/ml, final concentration) and incubated for the indicated time, diluted with an equal volume of 90% acetonitrile containing 0.1% TFA and analyzed onto a LiChrospher C18 column (16 ag). No peptide indicates liver microsome aliquot without the peptide. b) Quantification of Peak 1 area (left panel) and height (right panel) of the indicated peptides. The corresponding half-life is also shown.
The stability of compound 4 and 5 in mouse liver microsomal preparations was assessed by HPLC analysis. To this aim microsomes were prepared as follows: 11 g of mouse liver tissue (C57BL/6 mice) was homogenized in cold PBS supplemented with 0.25 M sucrose (3 ml/g of tissue) using a Potter-Elvehjem homogenizer (10 strokes), followed by additional homogenization using a rotor-stator homogenizer (40 sec). The homogenate was filtered through 70 pm cell-strainers, centrifuged three times to remove insoluble materials (500 x g, 5 min; 3000 x g, 30 min; 110000 x g, 90 min, 4° C.). […] Protein concentration was measured by measuring the absorbance at 280 nm with a NanoDrop spectrophotometer (Thermo Scientific). […]

[2] = target: T1, αvβ6 on human keratinocytes (HaCat) (Homo sapiens, UniProt P06756+P18564); test: Effect of peptides on binding of anti-αvβ6 mAb 10D5 to HaCaT cells (FACS); type: cell-based; conditions: competition with mAb 10D5
T1 construct: endogenous in cells; host or cells: human skin keratinocytes HaCaT

αvβ8 = αvβ8 (Homo sapiens, UniProt P06756+P26012); test: Competitive integrin binding assay (isoDGR/STV-HRP probe), αvβ8-coated plates; conditions: Table 3a and text; ± standard error of the mean; read-out: Ki αvβ8
Experimental: (§1) Peptide binding was measured by a competitive binding assay using as integrin probe a complex made by a N-terminal acetylated isoDGR peptide biotinylated at the E-amino group of the lysine, acetyl-Ciso[…]-bio (SEQ ID No. 29), and a streptavidin-peroxidase conjugate (called isoDGR/STV-HRP)[43].
(§2) Each mixture was then added to integrin-coated wells and left to incubate for 2 h at room temperature. After washing with 25 mM Tris-HCl, pH 7.4, containing 150 mM sodium chloride, 1 mM magnesium chloride, 1 mM manganese chloride, each well was filled with a chromogenic solution (o-phenylenediamine dihydrochloride) and left to incubate for 30 min at room temperature. The chromogenic reaction was stopped by adding 1 N sulfuric acid. The absorbance at 490 nm was then measured using a microtiterplate reader. Ki values were calculated by non-linear regression analysis of competitive binding data using the “One site - Fit Ki” equation of the GraphPad Prism Software using the Kd values of the probe indicated above.

αvβ5 = target: T2, αvβ5 (Homo sapiens, UniProt P06756+P18084); test: Competitive integrin binding assay (isoDGR/STV-HRP probe), αvβ5-coated plates; conditions: Table 3a; ± standard error of the mean
T2 construct: purchased Immunological Sciences (Rome, Italy)
Experimental: as §1, §2

αvβ6 = target: T3, αvβ6 (Homo sapiens, UniProt P06756+P18564); test: Competitive integrin binding assay (isoDGR/STV-HRP probe), αvβ6-coated plates; conditions: Table 3a and text; ± standard error of the mean; read-out: Ki αvβ6
T3 construct: recombinant human αvβ6 extracellular domain (R&D Systems); purchased R&D Systems (Minneapolis, Minn.)
Experimental: as §1, §2

[3] = tested on: human bladder carcinoma 5637 cells; test: 5637 cell viability (PrestoBlue); type: cell-based; conditions: 48 h
Experimental: FIG. 12. Effect of peptides 4 and 5 on human bladder carcinoma 5637 cell viability. 5637 cells were seeded in a 96-well microtiterplate (20,000 cell/well) and cultured for 16 h at 37° C., 5% CO2. The day after the indicated doses of peptide 4 and 5 were added to the cells and left to incubate for additionally 48 h at 37° C., 5% CO2. Cell viability was assessed using the PrestoBlue* cell viability reagent (ThermoFisher) according to the manufacturer's instructions. Viability of the treated cells was normalized to that of untreated cells and is reported as a percentage (mean±SE of triplicate wells).

[4] = target: T4, αvβ6 on human bladder cancer 5637 cells (Homo sapiens, UniProt P06756+P18564); test: Effect of peptides on binding of anti-αvβ6 mAb 10D5 to 5637 cells (FACS); type: cell-based; conditions: competition with mAb 10D5
T4 construct: cell-surface expressed αvβ6 on human bladder cancer 5637 cells; host or cells: human bladder cancer 5637 cells

α5β1 = target: T5, α5β1 (Homo sapiens, UniProt P05556+P08648); test: Competitive integrin binding assay (isoDGR/STV-HRP probe), α5β1-coated plates
T5 construct: purchased Immunological Sciences (Rome, Italy)
Experimental: as §1, §2

SMILES | half-life at 454 μg/ml [1] [min] | binding to cell-surface expressed αvβ6 [2] | Ki (αvβ8) [nM] | Ki (αvβ5) [nM] | Ki (αvβ6) [nM] | cytotoxicity in vitro [3] | binding to cell-surface expressed αvβ6 [4] | Ki (α5β1) [nM]
CC[C@H](C)[C@H](NC(=O)[C@H](CCCNC(=N)N)NC(=O)[C@H](CC(C)C)NC(=O)[C@H](CC(=O)O)NC(=O)CNC(=O)[C@H](CCCNC(=N)N)NC(=O)[C@H](CC(C)C)NC(=O)[C@@H](NC(=O)[C@H](CCC(=O)O)NC(=O)[C@@H](N)Cc1ccccc1)[C@@H](C)O)C(=O)N[C@@H](CC(C)C)C(=O)N[C@@H](CO)C(=O)N[C@H](C(=O)N[C@@H](CC(C)C)C(=O)N[C@@H](CCCNC(=N)N)C(=O)N[C@@H](Cc1c[nH]cn1)C(=O)N[C@@H](CCC(N)=O)C(=O)N[C@@H](CC(N)=O)C(=O)N[C@@H](CC(C)C)C(=O)N[C@@H](CC(C)C)C(=O)N[C@@H](CCCCN)C(=O)N[C@@H](CCC(=O)O)C(=O)N[C@@H](CC(C)C)C(=O)N[C@@H](CCC(N)=O)C(=O)N[C@@H](CC(=O)O)C(=O)O)[C@@H](C)CC [peptide 4] (H-FETLRGDLRILSILRHQNLLKELQD-OH; N-terminus and C-terminus assumed) | 78 | bound cell-surface expressed αvβ6 | 8.5 ± 3.7 | 2410 ± 1590 | 1.6 ± 0.3 | not cytotoxic | bound cell-surface expressed αvβ6 | –
CC(C)C[C@H](NC(=O)[C@H](CC(=O)O)NC(=O)CNC(=O)[C@H](CCCNC(=N)N)NC(=O)[C@H](CC(C)C)NC(=O)[C@H](CC(N)=O)NC(=O)[C@@H]1CCCN1C(=O)[C@@H](NC(=O)[C@H](C)NC(=O)[C@@H](N)CC(N)=O)C(C)C)C(=O)N[C@@H](CCC(N)=O)C(=O)N[C@H](C(=O)N[C@@H](CC(C)C)C(=O)N[C@@H](C)C(=O)N[C@@H](CCC(N)=O)C(=O)N[C@@H](CCCCN)C(=O)N[C@H](C(=O)N[C@@H](C)C(=O)N[C@@H](CCCNC(=N)N)C(=O)N[C@H](C(=O)O)[C@@H](C)O)C(C)C)C(C)C [peptide 6] | – | – | – | – | – | – | – | 2317 ± 10
